# Measured values reported in patent US3950351A, “New derivatives of 2-benzamido-5-nitro thiazoles” (S.P.R.L. Phavic, priority 1973, dated 1976).
# Key:
# Syphacia obvelata = experiment: Test for anthelminthics, nematodes (R. CAVIER); format: in vivo; design: Syphacia: (4) percentage of activity: concentration or dose not given beside the values; settings: Table II; 10 subjects
# From the text: (§1) Biological tests have been performed with a great number of compounds of formula I, using the following techniques: 1)- Test for amoebicidal activity described by R. CAVIER, Ann. pharm. franc. 1960, 18, pages 583-589 and by R. CAVIER and J. CENAC, Bull. Soc. Path. exot. 1972, 65, pages 399-404. 2) - Test for trichomonacidal activity described by R. Cavier and P. BUOT, Ann. Pharm. franc., 1964, 22, pages 211-216 and by R. CAVIER and J. CENAC, Semaine des Hopitaux, 1972, 48, pages 391-394. 3)- Tests for anthelminthics described for nematodes (such as Syphacia obvelata) by R. CAVIER, Bull. Soc. Path. exot. 1962, 55, pages 412-417, and for cestodes (such as Hymenolepis nana), by R. CAVIER, Ann. pharm. franc. 1956, 14, pages 545-552 and by R. CAVIER and M. J. NOTTEGHEM, Ann. Pharm. franc., 1968, 28, pages 603-606.
# Hymenolepis nana [1] = experiment: Test for anthelminthics, cestodes (R. CAVIER; R. CAVIER and M. J. NOTTEGHEM); format: in vivo; design: Hymenolepis nana: (4) percentage of activity: concentration or dose not given beside the values; settings: Table II; 10 subjects
# From the text: as §1
# Biomphalaria glabrata = experiment: Molluscicidal activity test; format: in vivo; settings: 24 h exposure at 26°C, observed again after 24 h, 10, 1 and 0.1 ppm tested, read-out: dose at which active against Biomphalaria glabrata
# Procedure: For determining the molluscicidal activity, the following test is used:
# Two to four weeks old molluscs are used. Five molluscs having the same size are put in the same container and covered with a testing solution at a temperature of 26°C during 24 hours. After rinsing, the animals are again observed after 24 hours. The total duration of this test therefore is 48 hours.
# Testing solutions containing respectively 10, 1 and 0.1 parts per million of the compounds to be tested in water having a hardness of 10° (hydrotimetric) are used.
# The sensitivity of the mollusc strain is standardized with known reference molluscicides such as Niclosamide (Registered Trademark).
# Hymenolepis nana [2] = experiment: Tests on Hymenolepis nana in mice, anthelminthic activity, single dose (technique of R. CAVIER); format: in vivo; design: Mortality: unit not given here
# From the text: Tests on Hymenolepis nana in mice have also been performed in order to determine the anthelminthic activity of various cmpounds of formula I, according to the technique of R. CAVIER. […] Four hours later, the animals have been purged by means of sodium sulfate.
# Acute toxicity in mice = settings: mouse, in vivo
# From the text: Toxicity investigations have shown that the compounds of formula I have a very low acute toxicity both on oral administration and on intraperitoneal administration to mice.
SMILES,Syphacia: (2) number of dead subjects (Syphacia obvelata),Syphacia: (3) number of subjects from which the parasite has been eradicated (Syphacia obvelata),Syphacia: (4) percentage of activity (Syphacia obvelata),Hymenolepis nana: (2) number of dead subjects (Hymenolepis nana [1]),Hymenolepis nana: (3) number of subjects from which the parasite has been eradicated (Hymenolepis nana [1]),Hymenolepis nana: (4) percentage of activity (Hymenolepis nana [1]),minimal effective concentration (Biomphalaria glabrata),further results
CC(=O)Oc1ccc(Br)cc1C(=O)Nc1ncc([N+](=O)[O-])s1 [PH 6103],0,2,20%,0,4,40%,1 µg/mL,–
CCC(=O)Oc1ccccc1C(=O)Nc1ncc([N+](=O)[O-])s1 [PH 6049],0,2,20%,0,10,100%,1 µg/mL,"Mice from which parasite has been eradicated, number (Hymenolepis nana [2]; 25 mg/kg): 8; Mice from which parasite has been eradicated, percentage (Hymenolepis nana [2]; 25 mg/kg): 40%; Mortality (Hymenolepis nana [2]; 25 mg/kg): 0; Mice from which parasite has been eradicated, number (Hymenolepis nana [2]; 50 mg/kg): 14; Mice from which parasite has been eradicated, percentage (Hymenolepis nana [2]; 50 mg/kg): 70%; Mortality (Hymenolepis nana [2]; 50 mg/kg): 0; Mice from which parasite has been eradicated, number (Hymenolepis nana [2]; 100 mg/kg): 18; Mice from which parasite has been eradicated, percentage (Hymenolepis nana [2]; 100 mg/kg): 90%; Mortality (Hymenolepis nana [2]; 100 mg/kg): 0; Mice from which parasite has been eradicated, number (Hymenolepis nana [2]; 200 mg/kg): 20; Mice from which parasite has been eradicated, percentage (Hymenolepis nana [2]; 200 mg/kg): 100%; Mortality (Hymenolepis nana [2]; 200 mg/kg): 0"
COc1cc(C(=O)Nc2ncc([N+](=O)[O-])s2)ccc1OC(C)=O [PH 6196],0,0,0%,0,0,0%,–,–
CC(=O)Oc1cc(C(=O)Nc2ncc([N+](=O)[O-])s2)cc(OC(C)=O)c1OC(C)=O [PH 6177],0,0,0%,0,0,0%,–,–
CC(=O)Oc1ccc(C(=O)Nc2ncc([N+](=O)[O-])s2)cc1OC(C)=O [PH 6162],0,2,20%,0,1,10%,–,–
CC(=O)Oc1cccc(C(=O)Nc2ncc([N+](=O)[O-])s2)c1 [PH 6045],0,0,0%,0,4,40%,10 µg/mL,–
CC(=O)Oc1ccc(OC(C)=O)c(C(=O)Nc2ncc([N+](=O)[O-])s2)c1 [PH 6056],0,1,10%,0,6,60%,–,–
CC(=O)Oc1cccc(C(=O)Nc2ncc([N+](=O)[O-])s2)c1OC(C)=O [PH 6239],0,1,10%,0,2,20%,10 µg/mL,–
CC(=O)Oc1cc(OC(C)=O)cc(C(=O)Nc2ncc([N+](=O)[O-])s2)c1 [PH 6161],0,7,70%,0,0,0%,–,–
COc1cc(C(=O)Nc2ncc([N+](=O)[O-])s2)cc(OC)c1OC(C)=O [PH 6059],0,2,20%,0,1,10%,10 µg/mL,–
CC(=O)Oc1ccccc1C(=O)Nc1ncc([N+](=O)[O-])s1 [PH 5776],0,6,60%,0,10,100%,1 µg/mL,"Mice from which parasite has been eradicated, number (Hymenolepis nana [2]; 25 mg/kg): 20; Mice from which parasite has been eradicated, percentage (Hymenolepis nana [2]; 25 mg/kg): 100%; Mortality (Hymenolepis nana [2]; 25 mg/kg): 0; Mice from which parasite has been eradicated, number (Hymenolepis nana [2]; 50 mg/kg): 30; Mice from which parasite has been eradicated, percentage (Hymenolepis nana [2]; 50 mg/kg): 100%; Mortality (Hymenolepis nana [2]; 50 mg/kg): 0; Mice from which parasite has been eradicated, number (Hymenolepis nana [2]; 100 mg/kg): 10; Mice from which parasite has been eradicated, percentage (Hymenolepis nana [2]; 100 mg/kg): 100%; Mortality (Hymenolepis nana [2]; 100 mg/kg): 0; Mice from which parasite has been eradicated, number (Hymenolepis nana [2]; 200 mg/kg): 10; Mice from which parasite has been eradicated, percentage (Hymenolepis nana [2]; 200 mg/kg): 100%; Mortality (Hymenolepis nana [2]; 200 mg/kg): 0; LD50 (Acute toxicity in mice; ip, intraperitoneal administration): > 95 mg/kg; LD50 (Acute toxicity in mice; oral administration): > 4000 mg/kg"
CC(=O)Oc1ccc(C(=O)Nc2ncc([N+](=O)[O-])s2)c(OC(C)=O)c1 [PH 6058],0,2,20%,0,2,20%,–,–
CC(=O)Oc1ccc(Cl)cc1C(=O)Nc1ncc([N+](=O)[O-])s1 [PH 6057],0,2,20%,0,7,70%,1 µg/mL,–
CC(=O)Oc1ccc(C(=O)Nc2ncc([N+](=O)[O-])s2)cc1 [PH 6046],0,2,20%,0,3,30%,–,–
